According to patent EP4371563A1, “COMBINATIONS OF LAROTRECTINIB AND MODERATE CYP3A4 INDUCERS” (Bayer Consumer Care AG, priority 2022, dated 2024):

How the values were obtained:
[1] = Observed larotrectinib exposure at 100 mg BID without CYP3A4 perpetrators; conditions: in vivo, 100 mg BID larotrectinib in the absence of any CYP3A4 perpetrators
Procedure: 100 mg BID larotrectinib was administered in the absence of any CYP3A4 perpetrators.

[2] = Observed larotrectinib plasma exposure after a single oral dose with and without itraconazole or rifampicin; type: in vivo, human; conditions: for AUC / Cmax: human, plasma, po
Procedure: A comparison was made between mean simulated and observed plasma concentrations of larotrectinib following a single oral dose of 100 mg larotrectinib in the absence of and co-administered with itraconazole on the 5th day of 7 days of dosing (200 mg QD). Simulated Cmax and AUC and corresponding ratios for larotrectinib are shown below. […] A comparison was made between mean simulated and observed plasma concentrations of larotrectinib following a single oral dose of 100 mg larotrectinib in the absence of and co-administered with rifampicin on the 10th day of 11 days of dosing (600 mg QD). Simulated Cmax and AUC and corresponding ratios for larotrectinib are shown below.

[3] = In silico model: simulated larotrectinib plasma exposure after a single oral dose with and without itraconazole or rifampicin (model verification against observed data); parameters: species or system human
Procedure: The effect of different CYP3A4 inhibitors and inducers on the pharmacokinetics of larotrectinib was evaluated using an in silico model. The following drugs were included in the study: The model was correlated by comparison of simulated and observed plasma concentrations in both healthy subjects and cancer patients for midazolam, testosterone, and several of the tested drugs, including larotrectinib alone, larotrectinib + intraconazole, larotrectinib + rifampicin. The following virtual trials were conducted: 12 healthy subjects (50% female) aged 20 to 55 years receiving larotrectinib (100 mg BID) for 14 days in the absence of itraconazole and coadminstered with itraconazole (tablets in fed state; 200 mg QD). A comparison was made between mean simulated and observed plasma concentrations of larotrectinib following a single oral dose of 100 mg larotrectinib in the absence of and co-administered with itraconazole on the 5th day of 7 days of dosing (200 mg QD). Simulated Cmax and AUC and corresponding ratios for larotrectinib are shown below. […] A comparison was made between mean simulated and observed plasma concentrations of larotrectinib following a single oral dose of 100 mg larotrectinib in the absence of and co-administered with rifampicin on the 10th day of 11 days of dosing (600 mg QD). Simulated Cmax and AUC and corresponding ratios for larotrectinib are shown below.

[4] = Observed, plus rifampicin 600 mg QD / control, single oral dose 100 mg larotrectinib, interval in brackets
[5] = coadministration of larotrectinib with rifampicin (600 mg QD)
[6] = 100 mg, Observed, Control: single oral dose 100 mg larotrectinib in absence of itraconazole, healthy subjects
[7] = 100 mg, Observed, Control: single oral dose 100 mg larotrectinib in absence of rifampicin
[8] = Observed, single oral dose 100 mg larotrectinib plus itraconazole 200 mg QD (5th day of 7 days), healthy subjects
[9] = Observed, single oral dose 100 mg larotrectinib plus rifampicin 600 mg QD (10th day of 11 days)

AUC [1]: 1590 ng·h/mL
Cmax [1]: 624 ng/mL
Ratio AUC [2, 4]: 0.19 (0.16, 0.24)
Ratio Cmax [2, 4]: 0.29 (0.23, 0.37)
observed reduction in exposure of larotrectinib, AUC [2, 5]: 81%
observed reduction in exposure of larotrectinib, Cmax [2, 5]: 71%
AUC [2, 6]: 1280 ng·h/mL
Cmax [2, 6]: 497 ng/mL
AUC [2, 7]: 1340 ng·h/mL
Cmax [2, 7]: 435 ng/mL
AUC [2, 8]: 5520 ng·h/mL
Cmax [2, 8]: 1400 ng/mL
AUC [2, 9]: 259 ng·h/mL
Cmax [2, 9]: 133 ng/mL
P/O Ratio AUC ([3]; predicted/observed of the AUC ratio plus itraconazole / control): 1.04
P/O Ratio AUC ([3]; predicted/observed of the AUC ratio plus rifampicin / control): 0.79
P/O Ratio Cmax ([3]; predicted/observed of the Cmax ratio plus itraconazole / control): 0.79
P/O Ratio Cmax ([3]; predicted/observed of the Cmax ratio plus rifampicin / control): 0.76
SMILES: O=C(Nc1cnn2ccc(N3CCC[C@@H]3c3cc(F)ccc3F)nc12)N1CC[C@H](O)C1 [larotrectinib]
